One assay deals with APS-2. The experiment in a line: ELISA on solid-phase lipid-coated plate: binding of antibodies of APS patient serum APS-2. Further details: species or system human. The following applies: Experiment 1; Absorbance, mean ± SD, n = 3; solid-phase lipid, β2-GPI 15 μg/mL; serum with β2-GPI removed. The procedure: To eliminate endogenous β2-GPI in some experiments, serum samples were passed through a heparin-Sepharose column. The effluent was dialyzed against PBS and was used for ELISAs.
Synthesized oxLig-1 (50 μg/mL, 50 μL/well) was adsorbed by evaporation on a polystyrene plate (Immulon 1B; Dynex Technologies Inc.), and the plate was then blocked with 1% BSA. Serum samples (diluted 1:100 with PBS containing 0.3% BSA) were incubated in the wells with β2-GPI (15 μg/mL) or other proteins for one hour at room temperature. Antibody binding was detected with HRP-labeled anti-human IgG. Further steps were performed through a method as described in “anti-β2-GPI ELISA.”
CL (50 μg/mL, 50 μL/well) was adsorbed on a polystyrene plate (Immulon 1B), and further steps were performed through a method as described in “ELISA for antibodies against a protein-oxLig-1 complex.”
(In general: An ELISA detects its analyte on a solid surface through an enzyme-linked reagent.)

The test system of a further assay is J774A.1 cells. The experiment in a line: Liposome binding to macrophages (3H-labeled liposomes, 4° C.). In kind it is cell-based, murine. The method, then:
FIG. 10. Effect of phosphatidylserine (PS) or oxLig-1 content on the binding of liposomes to macrophages. A monolayer of J774.A1 cells was incubated for 2 hours at 4° C. with Celgrosser-P medium containing ^3H-labeled liposomes (50 nmol lipid/well). Open circle represents PS-liposomes; closed circle represents PS-Chol-liposomes; open square represents oxLig-1-liposomes; and closed square represents oxLig-1-Chol-liposomes. Data are indicated as the mean± SD of triplicate samples.
FIG. 11. β2-GPI and anti-β2-GPI monoclonal antibody-dependent binding of ligand-containing liposomes to macrophage. A monolayer of J774.A1 cells was incubated for 2 hours at 4° C. with Celgrosser-P medium containing ^3H-labeled liposomes (50 nmol lipid/well) and WB-CAL-1, in the presence or absence of β2-GPI (200 μg/ml). • A: Binding of PS-liposomes (PS: 50 mol %,) to J774.A1. cells in the presence (closed square) or absence (open square) of β2-GPI (200 μg/ml) • B: Binding of oxLig-1-liposomes (oxLig-1: 40 mol %) to J774.A1 cells in the presence (black bar) or absence (white bar) of β2-GPI (200 μg/ml). • C: A monolayer of J774.A1 cells was incubated for 2 hours at 4° C. with Celgrosser-P medium containing ^3H-labeled synthesized oxLig-1-liposomes (50 nmol lipid/well) and WB-CAL-1, in the presence or absence of β2-GPI (200 μg/ml). Binding of synthesized oxLig-1-liposomes in the absence of β2-GPI and WB-CAL-1 (open circle), binding of synthesized oxLig-1-liposomes in the presence of β2-GPI (open square), binding of synthesized oxLig-1-liposomes in the presence of WB-CAL-1 (closed square), and binding of synthesized oxLig-1-liposomes in the presence of both β2-GPI and WB-CAL-1 (closed circle). Data are indicated as the mean ± SD of triplicate samples.
A monolayer of J774.A1 cells was incubated for 2 hours at 4° C. with Celgrosser-P medium containing [^3H]-labeled liposomes (containing a predetermined ligand, 50 nmol lipid/well). DPPS-containing liposomes (open squares), oxLig-1-containing liposomes (closed squares), oxLig-2-containing liposomes (closed circles), and 13-COOH-7KC-containing liposomes (closed triangles). Data are indicated as mean± SD of triplicate samples.
A monolayer of J774.A1 cells was incubated for 2 hours at 4° C. with Celgrosser-P medium containing [^3H]-labeled liposomes (containing a predetermined ligand (30 mmol %), 50 nmol lipid/well) and in the presence (black bars) or absence (white bars) of β2-GPI (200 μg/mL) and WB-CAL-1 ([…]).
A monolayer culture of murine macrophage-like cells (J774A.1) obtained from Riken Cell Bank (Tsukuba) was maintained in RPMI 1640 medium supplemented with 10% fetal carf serum (FCS). For binding experiments, the cells (8×10^5 cells/mL, RPMI1640) were dispensed in an amount of 1 mL/well into a 12-well culture plate (Sumitomo Bakelite Co., Ltd.) and were incubated for 24 hours at 37° C., then the culture broth was replaced with Celgrosser-P medium (Sumitomo Pharmaceutical Co.). After one hour of preincubation at 37° C., 50 μL of liposomes (50 nmol lipid/well) with or without β2-GPI (200 μg/mL) and WB-CAL-1 (100 μg/mL) were added to each culture, and the cells were incubated at 4° C. and/or 37° C. The wells were next washed with chilled PBS, and the cells were lysed by adding 1 mL of 0.1N NaOH. An aliquot was taken for determination of cellular proteins and of radioactivity associated with the cells. Protein concentration was determined in a manner as described above.

In the case of `CC(C)CCC[C@@H](C)[C@H]1CC[C@H]2[C@@H]3C(=O)C=C4C[C@@H](OC(=O)CCCCCCCC(=O)O)CC[C@]4(C)[C@H]3CC[C@]12C` [oxLig-1, 9-oxo-9-(7-ketocholest-5-en-3β-yloxy)nonanoic acid], the “Binding of β2-GPI-dependent aCL, APS-2” value in the assay with APS-2 is given as 1.222 ± 0.057. In the assay on J774A.1 cells (J774A.1 cells, 2 hours at 4° C., 50 nmol lipid/well, without β2-GPI and antibody, result in words), the “direct binding of liposomes to macrophages” value is given as “relatively low or negligible small”. Also, the “uptake of ligand-containing liposomes to J774A.1 cells in the presence of both β2-GPI and WB-CAL-1” value in the assay with J774A.1 cells (liposomes containing the ligand, compared with cholesteryl linoleate-liposomes (control), FIG. 20, result in words) was “significantly enhanced”. The “ligand concentration in liposomes at which binding to macrophages reached almost plateau” value with J774A.1 cells (synthesized oxLig-1-liposomes, J774A.1 cells) is recorded as 10 mol %.

Source of the values: patent US7160733B2, “Ligand specific to β2-glycoprotein I and use thereof” (priority 2001, dated 2007).
